# Peptide text beside a SMILES is read from it.
# Experiments:
# [1] = target: BCRP (Homo sapiens, UniProt Q9UNQ0); experiment: Inhibition of BCRP in Caco-2 cells; format: in vitro ADME
# [2] = target: CYP2C9 (Homo sapiens, UniProt P11712); experiment: CYP450 inhibition assay; format: in vitro ADME
# [3] = tested on: human hepatocytes; experiment: LDH release cytotoxicity in the CYP induction assay; format: cell-based; settings: three donors, 0.100, 1.00, 3.00, 10.0 and 15.0 μM
# [4] = tested on: rat hepatocytes; experiment: Metabolite identification in hepatocytes; format: in vitro ADME; settings: cryopreserved rat hepatocytes, FC-12738 10 μM, 37 °C, 240 min, LC-UV-MS
# [5] = Metabolism of FC-12738 in SD rat plasma; format: in vivo
# [6] = In vitro protein binding, rapid equilibrium dialysis; format: in vitro ADME; settings: cynomolgus monkey, plasma
# [7] = tested on: CYP3A; experiment: CYP time-dependent inhibition assay; format: in vitro ADME, human
# [8] = Single rising dose pharmacokinetics in beagle dogs; format: in vivo, beagle dog; settings: for AUC(0-inf) / AUC(0-t) / Cmax / Tmax / half-life: male, beagle, dog, plasma, sc
# Sequence of CYP2C9 (P11712 whole entry): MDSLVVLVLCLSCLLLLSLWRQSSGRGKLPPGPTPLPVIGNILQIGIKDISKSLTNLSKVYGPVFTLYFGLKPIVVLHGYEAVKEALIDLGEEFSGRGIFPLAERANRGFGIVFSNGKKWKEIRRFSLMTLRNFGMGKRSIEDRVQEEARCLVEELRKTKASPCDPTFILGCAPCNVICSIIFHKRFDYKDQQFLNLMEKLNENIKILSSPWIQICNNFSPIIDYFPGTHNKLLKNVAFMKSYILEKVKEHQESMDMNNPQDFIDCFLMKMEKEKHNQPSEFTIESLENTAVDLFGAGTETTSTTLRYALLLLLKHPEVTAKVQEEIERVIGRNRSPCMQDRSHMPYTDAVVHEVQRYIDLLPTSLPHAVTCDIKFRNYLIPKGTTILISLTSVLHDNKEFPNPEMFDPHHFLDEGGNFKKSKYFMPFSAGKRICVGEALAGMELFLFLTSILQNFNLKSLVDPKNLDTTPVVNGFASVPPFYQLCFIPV
# Sequence of BCRP (Q9UNQ0 whole entry): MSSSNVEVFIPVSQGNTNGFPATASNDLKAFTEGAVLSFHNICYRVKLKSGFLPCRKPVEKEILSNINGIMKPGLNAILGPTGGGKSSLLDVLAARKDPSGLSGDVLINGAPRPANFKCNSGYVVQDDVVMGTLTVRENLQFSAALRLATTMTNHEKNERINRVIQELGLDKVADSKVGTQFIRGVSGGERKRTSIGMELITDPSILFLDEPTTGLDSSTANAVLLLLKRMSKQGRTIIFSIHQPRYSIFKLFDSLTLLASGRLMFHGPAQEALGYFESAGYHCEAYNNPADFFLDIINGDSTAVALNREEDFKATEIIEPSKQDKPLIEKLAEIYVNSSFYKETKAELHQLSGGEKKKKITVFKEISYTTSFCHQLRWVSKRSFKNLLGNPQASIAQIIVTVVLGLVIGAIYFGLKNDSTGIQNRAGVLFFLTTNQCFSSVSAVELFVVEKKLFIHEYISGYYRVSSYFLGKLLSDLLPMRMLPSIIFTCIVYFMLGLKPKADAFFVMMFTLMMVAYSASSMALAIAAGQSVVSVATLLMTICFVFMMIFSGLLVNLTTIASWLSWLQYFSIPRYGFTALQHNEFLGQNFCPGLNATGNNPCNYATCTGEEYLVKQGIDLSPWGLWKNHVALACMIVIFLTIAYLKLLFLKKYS
smiles,measurement,setting,value
"CC(C)[C@@H](NC(=O)[C@H](N)Cc1ccc(O)cc1)C(=O)N[C@H](CC(=O)O)C(=O)N[C@H](CCCCN)C(=O)N[C@H](CCCNC(=N)N)C(=O)O [FC-12738, (D-Tyr)-(D-Val)-(D-Asp)-(D-Lys)-(D-Arg)] (HELM PEPTIDE1{[dY].[dV].[dD].[dK].[dR]}$$$$V2.0)",IC50,[1],> 100 µM
same,IC50,[2],> 100 µM
same,Cytotoxicity (released LDH),[3],no cytotoxicity
same,Relative Abundance (UV%),[4],87.56%
same,Relative MS abundance (%Total),"[5]; male SD rat plasma 0-2 h, IV 2 mg/kg FC-12738 single",97.10%
same,Relative MS abundance (%Total),"[5]; male SD rat plasma 0-4 h, SC 10 mg/kg FC-12738 single",96.57%
same,"fraction unbound at 6 h, 0.2 µM",[6],0.538
same,"fraction unbound at 6 h, 10 µM",[6],0.736
same,IC50 at 30 min,"[7]; human, pooled human liver microsomes",> 100 µM
same,Time-dependent inhibition of CYP3A,"[7]; midazolam and testosterone as substrates, cutoff IC50 shift >= 1.5-fold",no time-dependent inhibition
same,Dose dependence of systemic exposure (AUC0-last and Cmax),"[8]; male beagle dogs, SC 1 to 25 mg/kg",increased with dose proportionally
same,AUC(0-inf),[8]; 1 mg/kg,2770 ng·h/mL
same,AUC(0-t),[8]; 1 mg/kg,2760 ng·h/mL
same,Cmax,[8]; 1 mg/kg,925 ng/mL
same,Tmax,[8]; 1 mg/kg,60 min
same,half-life,[8]; 1 mg/kg,57.4 min
same,AUC(0-inf),[8]; 5 mg/kg,16800 ng·h/mL
same,AUC(0-t),[8]; 5 mg/kg,16700 ng·h/mL
same,Cmax,[8]; 5 mg/kg,7090 ng/mL
same,Tmax,[8]; 5 mg/kg,60 min
same,half-life,[8]; 5 mg/kg,54.4 min
same,AUC(0-inf),[8]; 25 mg/kg,72800 ng·h/mL
same,AUC(0-t),[8]; 25 mg/kg,72800 ng·h/mL
same,Cmax,[8]; 25 mg/kg,33300 ng/mL
same,Tmax,[8]; 25 mg/kg,40 min
same,half-life,[8]; 25 mg/kg,121 min

# From paper doi:10.1101/2023.04.18.537371v1 (bioRxiv, 2023)
